Measured values: patent US9481636B2, “N-benzylaniline derivative and uses thereof” (Nanjing Medical University, priority 2011, dated 2016)

What follows are compounds tested on OGD-injuried neurons (primary cortical neurons) (assay: Cell viability assay: LDH release by OGD-injured primary cortical neurons). Conditions: Mus musculus, Primary cortical neuron; drug concentration 10^−6 M/L; OGD 2 hours, LDH after 8 hours.
Format: cell-based, mice
Method: After primary neurons were cultured for 9 days, the medium was replaced by DMEM high glucose medium containing 1% FBS, serum-starved overnight and then washed twice with OGD culture solution. This OGD culture solution contains DMEM medium, 1% FBS, 1% penicillin/streptomycin and B27, and contains no sugar. Then, the primary neurons were incubated with the test drugs for 30 minutes, OGD culture solution was added into an anaerobic tank and oxygen-deprived for 2 hours. The OGD culture solution was discarded, and replaced by oxygen-saturated DMEM medium containing 1% FBS, 1% penicillin/streptomycin and B27. After 8 hours the culture solution was collected to measure LDH level.
After the primary cortical neurons were treated with various processes, neuronal culture solution in six-well plates was pipetted to a 1.5 mL plastic centrifuge tube; cells were washed three times with PBS solution and each well was added PBS 1000 μl. The cells were freezed and thawed repeated for three times, centrifuged at 12000′ g for 5 minutes at 4° C., and the supernatant was removed for use. The activity of LDH enzyme was determined with 50 μl culture solution and 25 μl supernatant using lactate dehydrogenase kit.
Protective Effects of the Objective Compounds Against Primary Cortical Neuronal Injury Cultured In Vitro (See Table 2)

With `COc1cc(NCc2cc(C(F)(F)F)cc(Cl)c2O)ccc1C(=O)OC1CC2CCC1(C)C2(C)C` (centres unmarked) [ZL006-49, bornyl-2-methoxy-4-(2-hydroxy-3-chloro-5-trifluoromethylbenzyl)aminobenzoate] as the compound, how does the inhibition at 1 µM read?
The inhibition at 1 µM was 32.6%.

How did the inhibition at 1 µM turn out when `CCCC(=O)Oc1cc(NCc2cc(F)cc(Cl)c2O)ccc1C(=O)OC1CC2CCC1(C)C2(C)C` (centres unmarked) [ZL006-60, bornyl-2-butyryloxy-4-(2-hydroxy-3-chloro-5-fluorobenzyl)aminobenzoate] was run?
Its inhibition at 1 µM is 68.4%.

`CCCC(=O)Oc1cc(NCc2cc(Br)cc(Cl)c2O)ccc1C(=O)OC1CC2CCC1(C)C2(C)C` (centres unmarked) [ZL006-44, bornyl-2-butyryloxy-4-(2-hydroxy-3-chloro-5-bromobenzyl)aminobenzoate] was tested. Which inhibition at 1 µM did it give?
The inhibition at 1 µM was 43.5%.

`CCCCOc1cc(NCc2cc(C(F)(F)F)cc(Cl)c2O)ccc1C(=O)OC1CC2CCC1(C)C2(C)C` (centres unmarked) [ZL006-50, bornyl-2-n-butoxy-4-(2-hydroxy-3-chloro-5-trifluoromethylbenzyl)aminobenzoate] was tested. Which inhibition at 1 µM did it give?
The inhibition at 1 µM was 40.2%.

Which inhibition at 1 µM does the source give for `CC(=O)Oc1cc(NCc2cc(C(F)(F)F)ccc2O)ccc1C(=O)OC1CC2CCC1(C)C2(C)C` (centres unmarked) [ZL006-74, bornyl-2-acetyloxy-4-(2-hydroxy-5-trifluoromethylbenzyl)aminobenzoate] here?
The inhibition at 1 µM was 24.7%.

For `CC(Nc1ccc(C(=O)O)c(O)c1)c1cc(Br)ccc1O` (centres unmarked) [ZL006-15, 2-hydroxy-4-[1-(2-hydroxy-5-bromo-phenyl)]ethylaminobenzoic acid], which inhibition at 1 µM is on record?
The inhibition at 1 µM was 28.6%.

`COc1c(Cl)cc(C(F)(F)F)cc1CNc1ccc(C(=O)OC2CC3CCC2(C)C3(C)C)c(O)c1` (centres unmarked) [ZL006-79, bornyl-2-hydroxy-4-(2-methoxy-3-chloro-5-trifluoromethylbenzyl)aminobenzoate] was tested. Which inhibition at 1 µM did it give?
The inhibition at 1 µM was 58.3%.

With `CC1(C)C2CCC1(C)C(OC(=O)c1cc(NCc3cc(F)cc(Cl)c3O)ccc1O)C2` (centres unmarked) [ZL006-56, bornyl-2-hydroxy-5-(2-hydroxy-3-chloro-5-fluorobenzyl)aminobenzoate] as the compound, how does the inhibition at 1 µM read?
Its inhibition at 1 µM is 50%.

Which inhibition at 1 µM does the source give for `COc1c(C(=O)OC2CC3CCC2(C)C3(C)C)ccc(NCc2cc(Cl)cc(Cl)c2O)c1Cl` (centres unmarked) [ZL006-26, bornyl-2-methoxy-3-chloro-4-(2-hydroxy-3,5-dichlorobenzyl)aminobenzoate] here?
Its inhibition at 1 µM is 35.4%.

Same assay, conditions: drug concentration 10^−6 M/L; OGD 2 hours, LDH after 8 hours

Which “Inhibition of LDH release (%)” value does the source give for `CC(=O)Oc1cc(NCc2cc(F)cc(Cl)c2O)ccc1C(=O)OC1CC2CCC1(C)C2(C)C` (centres unmarked) [ZL006-59, bornyl-2-acetyloxy-4-(2-hydroxy-3-chloro-5-fluorobenzyl) aminobenzoate] here?
Its value is 61.7%.

Which “Inhibition of LDH release (%)” value does the source give for `CC(=O)Oc1cc(N(Cc2cc(Cl)cc(Cl)c2O)C(C)=O)ccc1C(=O)OC1CC2CCC1(C)C2(C)C` (centres unmarked) [ZL006-31, bornyl-2-acetyloxy-4-[N-(2-hydroxy-3,5-dichlorobenzyl)-N-acetyl]aminobenzoate] here?
The value was 77.3%.

For “methyl 2-acetyloxy-4-[N-(2-hydroxy-3,5-dichlorobenzyl)-N-(bornyl-2-carbonylethyl)]aminobenzoate [ZL006-38]”, which “Inhibition of LDH release (%)” value is on record?
The value was 41.3%.

With `COc1cc(N(C)Cc2cc(Cl)cc(Cl)c2O)ccc1C(=O)OC1CC2CCC1(C)C2(C)C` (centres unmarked) [ZL006-29, bornyl-2-methoxy-4-[N-(2-hydroxy-3,5-dichlorobenzyl)-N-methyl]aminobenzoate] as the compound, how does the “Inhibition of LDH release (%)” value read?
The value was 41.7%.

How did the “Inhibition of LDH release (%)” value turn out when `COc1cc(NCc2cc(F)cc(Cl)c2O)ccc1C(=O)OC1CC2CCC1(C)C2(C)C` (centres unmarked) [ZL006-57, bornyl-2-methoxy-4-(2-hydroxy-3-chloro-5-fluorobenzyl) aminobenzoate] was run?
Its value is 23.6%.

For `CC1(C)C2CCC1(C)C(OC(=O)c1ccc(NCc3cc(Br)cc(Cl)c3O)cc1O)C2` (centres unmarked) [ZL006-39, bornyl-2-hydroxy-4-(2-hydroxy-3-chloro-5-bromobenzyl) aminobenzoate], which “Inhibition of LDH release (%)” value is on record?
The value was 81.2%.

`CCOC(=O)c1ccc(N(C)Cc2cc(Cl)cc(Cl)c2O)cc1C(=O)OCC` [ZL006-13, diethyl 4-[N-(3,5-dichloro-2-hydroxybenzyl)-N-methyl]aminophthalate] was tested. Which “Inhibition of LDH release (%)” value did it give?
Its value is 31.4%.

How did the “Inhibition of LDH release (%)” value turn out when `CC(=O)Oc1c(Cl)cc(Cl)cc1CNc1ccc(C(=O)OC2CC3CCC2(C)C3(C)C)c(O)c1` (centres unmarked) [ZL006-76, bornyl-2-hydroxy-4-(2-acetyloxy-3,5-dichlorobenzyl) aminobenzoate] was run?
Its value is 40.5%.

`CC(=O)Oc1ccc(NCc2cc(Cl)cc(Cl)c2O)cc1C(=O)OC1CC2CCC1(C)C2(C)C` (centres unmarked) [ZL006-02, bornyl-2-acetyloxy-5-(2-hydroxy-3,5-dichlorobenzyl) aminobenzoate] was tested. Which “Inhibition of LDH release (%)” value did it give?
Its value is 21.4%.

How did the “Inhibition of LDH release (%)” value turn out when `CC1(C)C2CCC1(C)C(OC(=O)c1ccc(NCc3cc(Cl)ccc3O)cc1O)C2` (centres unmarked) [ZL006-66, bornyl-2-hydroxy-4-(2-hydroxy-5-chlorobenzyl) aminobenzoate] was run?
The value was 13.3%.

For `CCCCOc1cc(NCc2cc(F)cc(Cl)c2O)ccc1C(=O)OC1CC2CCC1(C)C2(C)C` (centres unmarked) [ZL006-58, bornyl-2-n-butoxy-4-(2-hydroxy-3-chloro-5-fluorobenzyl) aminobenzoate], which “Inhibition of LDH release (%)” value is on record?
Its value is 25.1%.

For `CCCCOc1cc(NCc2cc(Br)cc(Cl)c2O)ccc1C(=O)OC1CC2CCC1(C)C2(C)C` (centres unmarked) [ZL006-42, bornyl-2-n-butoxy-4-(2-hydroxy-3-chloro-5-bromobenzyl) aminobenzoate], which “Inhibition of LDH release (%)” value is on record?
Its value is 37.7%.

For `CCCCCCOc1cc(NCc2cc(Cl)cc(Cl)c2O)ccc1C(=O)OC1CC2CCC1(C)C2(C)C` (centres unmarked) [ZL006-22, bornyl-2-n-hexyloxy-4-(2-hydroxy-3,5-dichlorobenzyl) aminobenzoate], which “Inhibition of LDH release (%)” value is on record?
Its value is 2.5%.

For `CN(Cc1cc(Cl)cc(Cl)c1O)c1ccc(C(=O)OC2CC3CCC2(C)C3(C)C)c(O)c1` (centres unmarked) [ZL006-27, bornyl-2-hydroxy-4-[N-(2-hydroxy-3,5-dichlorobenzyl)-N-methyl]aminobenzoate], which “Inhibition of LDH release (%)” value is on record?
Its value is 25.3%.

With `CC1(C)C2CCC1(C)C(OC(=O)c1ccc(NCc3cc(F)cc(Cl)c3O)cc1O)C2` (centres unmarked) [ZL006-08, bornyl-2-hydroxy-4-(2-hydroxy-3-chloro-5-fluorobenzyl) aminobenzoate] as the compound, how does the “Inhibition of LDH release (%)” value read?
The value was 50.4%.

With `CC1(C)C2CCC1(C)C(OC(=O)c1ccc(NCc3cc(F)cc(Cl)c3O)cc1O)C2` (centres unmarked) [ZL006-55, bornyl-2-hydroxy-4-(2-hydroxy-3-chloro-5-fluorobenzyl) aminobenzoate] as the compound, how does the “Inhibition of LDH release (%)” value read?
The value was 36.3%.

How did the “Inhibition of LDH release (%)” value turn out when `CN(Cc1cc(C(F)(F)F)cc(Cl)c1O)c1ccc(C(=O)OC2CC3CCC2(C)C3(C)C)c(O)c1` (centres unmarked) [ZL006-53, bornyl-2-hydroxy-4-[N-(2-hydroxy-3-chloro-5-trifluoromethylbenzyl)-N-methyl]aminobenzoate] was run?
The value was 61.1%.

With `CC(=O)Oc1cc(N(Cc2cc(Cl)cc(Cl)c2O)C(C)=O)ccc1C(=O)O` [ZL006-10, 2-acetyloxy-4-[N-(2-hydroxy-3,5-dichlorobenzyl)-N-acetyl]aminobenzoic acid] as the compound, how does the “Inhibition of LDH release (%)” value read?
Its value is 42.3%.

How did the “Inhibition of LDH release (%)” value turn out when `COc1cc(NCc2cc(Cl)cc(Cl)c2O)ccc1C(=O)OC1CC2CCC1(C)C2(C)C` (centres unmarked) [ZL006-20, bornyl-2-methoxy-4-(2-hydroxy-3,5-dichlorobenzyl) aminobenzoate] was run?
The value was 11.1%.

Which “Inhibition of LDH release (%)” value does the source give for `CCCC(=O)Oc1cc(NCc2cc(Cl)cc(Cl)c2O)ccc1C(=O)OC1CC2CCC1(C)C2(C)C` (centres unmarked) [ZL006-23, bornyl-2-butyryloxy-4-(2-hydroxy-3,5-dichlorobenzyl) aminobenzoate] here?
The value was 18.7%.

For `CN(Cc1cc(F)cc(Cl)c1O)c1ccc(C(=O)OC2CC3CCC2(C)C3(C)C)c(O)c1` (centres unmarked) [ZL006-61, bornyl-2-hydroxy-4-[N-(2-hydroxy-3-chloro-5-fluorobenzyl)-N-methyl]aminobenzoate], which “Inhibition of LDH release (%)” value is on record?
Its value is 56.5%.

`COc1cc(NCc2cc(F)ccc2O)ccc1C(=O)OC1CC2CCC1(C)C2(C)C` (centres unmarked) [ZL006-70, bornyl-2-methoxy-4-(2-hydroxy-5-fluorobenzyl) aminobenzoate] was tested. Which “Inhibition of LDH release (%)” value did it give?
The value was 2.4%.

With `COc1cc(NCc2cc(Br)cc(Cl)c2O)ccc1C(=O)OC1CC2CCC1(C)C2(C)C` (centres unmarked) [ZL006-41, bornyl-2-methoxy-4-(2-hydroxy-3-chloro-5-bromobenzyl) aminobenzoate] as the compound, how does the “Inhibition of LDH release (%)” value read?
The value was 45.5%.

With `COC(=O)c1cc(N(C)Cc2cc(F)cc(Cl)c2O)ccc1O` [ZL006-11, methyl 2-hydroxy-5-[N-(2-hydroxy-3-chloro-5-fluorobenzyl)-N-methyl]aminobenzoate] as the compound, how does the “Inhibition of LDH release (%)” value read?
Its value is 41.1%.

For `CC(Nc1ccc(C(=O)O)c(O)c1)c1cc(Cl)ccc1O` (centres unmarked) [ZL006-14, 2-hydroxy-4-[1-(2-hydroxy-5-chlorophenyl)]-ethylaminobenzoic acid], which “Inhibition of LDH release (%)” value is on record?
Its value is 19.9%.

`CCCCOc1cc(NCc2cc(Cl)cc(Cl)c2O)ccc1C(=O)OC1CC2CCC1(C)C2(C)C` (centres unmarked) [ZL006-21, bornyl-2-n-butoxy-4-(2-hydroxy-3,5-dichlorobenzyl) aminobenzoate] was tested. Which “Inhibition of LDH release (%)” value did it give?
Its value is 6.2%.

Which “Inhibition of LDH release (%)” value does the source give for `CC(=O)Oc1c(Cl)cc(Br)cc1CNc1ccc(C(=O)OC2CC3CCC2(C)C3(C)C)c(O)c1` (centres unmarked) [ZL006-78, bornyl-2-hydroxy-4-(2-acetyloxy-3-chloro-5-bromobenzyl) aminobenzoate] here?
The value was 70.6%.

How did the “Inhibition of LDH release (%)” value turn out when `CC(=O)Oc1cc(NCc2cc(F)ccc2O)ccc1C(=O)OC1CC2CCC1(C)C2(C)C` (centres unmarked) [ZL006-71, bornyl-2-acetyloxy-4-(2-hydroxy-5-fluorobenzyl) aminobenzoate] was run?
Its value is 7.8%.

Which “Inhibition of LDH release (%)” value does the source give for `COc1cc(NCc2cc(Cl)cc(Cl)c2O)c(Cl)cc1C(=O)OC1CC2CCC1(C)C2(C)C` (centres unmarked) [ZL006-25, bornyl-2-methoxy-4-(2-hydroxy-3,5-dichlorobenzyl) amino-5-chlorobenzoate] here?
Its value is 30.6%.
